{"source": "patent US11046721B2", "about": "“Ruthenium-based photolinkers and methods of use” (The Trustees of the University of Pennsylvania, priority 2014, dated 2021)", "key": {"[1]": {"conditions": "reported, Zayat et al. 2003; cited from earlier work"}, "[2]": {"test_system": "chordin (chd)", "assay": "chd knockdown phenotype in microinjected zebrafish embryos", "assay_type": "in vivo", "conditions": "incubated in the dark; for Phenotype of embryos: injected at 1-cell stage, 24-28 hpf", "protocol": "FIG. 15 is a series of images depicting zebrafish, including the chd-MO knockdown phenotype. Zebrafish embryos were injected at the 1-cell stage with 0.51 mM chd-MO and imaged at 24 hpf. […] Embryos scored as normal had V-shaped somites, and normal head and tail development. Severe was identified by decreased head size, U-shaped somites, and a large blood island on the tail. The moderate and mild phenotypes were identified by U-shaped somites and a medium or small blood island on the tail.\n(§1) FIG. 16A is an image of a wildtype embryo, uninjected. […] All embryos were injected at 1-cell stage. […] MO Control: Zebrafish embryos were injected at the 1-cell stage with 0.25 mM ntl-MO and imaged at 24 hpf. Ru-MO-ntl: Zebrafish embryos were injected at the 1-cell stage with 0.25 mM Ru-MO-ntl. Half of the embryos were irradiated (450 nm, 14 mW/cm^2, 5 min) at 1 hpf, while the other half were incubated in the dark. Embryos were scored for phenotype at 24 hpf and compared to wildtype.\nZebrafish embryos were obtained. All embryos obtained were TLF×TLF WT. Zebrafish embryo injection solutions were prepared to contain a final concentration of 0.1 M KCl and 0.25% phenol red dye. All injections were performed at the one-cell stage and injected into the cell compartment only. A Harvard Apparatus PLI-100 pico-injector was used to inject controlled volumes. Injection volume was calibrated to dispense 5 nL per embryo. Zebrafish embryos were incubated at 28° C. in E3 zebrafish medium. […]\nMO-chd or Ru-cMO-chd (514 pmol/μL) was microinjected into 1-cell-stage zebrafish embryos, which were incubated at 28° C. in the dark and at 24 hours post-fertilization (hpf), scored for phenotypic response and imaged using a previously reported method (Westerfield, from “The Zebrafish Book. A guide for the Laboratory Use of Zebrafish (Danio rerio).” 4th ed.; University of Oregon Press, 2000). Embryos scored as normal had V-shaped somites, and normal head and tail development. […]"}, "[3]": {"conditions": "450-nm light, 53 mW/cm^2, 80 μM, 1.5 mL, stirred", "method": "Light source: 450 nm laser (14 mW/cm^2), 14 μM RuBEP in water, 0.2 OD.\nA sapphire Galaxy Blue handheld laser was purchased from Beam of Light Technologies (Oregon, USA) and used to determine the quantum yield of RuBEP. Measured power at the sample was 53 mW/cm^2, with a maximum output wavelength of 450 nm.\nPhotodissociation of 3EP from RuBEP was monitored by LCMS (FIG. 4), UV-Vis (FIG. 6B) and ^1H and ^13C NMR (FIG. 5) spectroscopies. Upon continuous irradiation with 450-nm light (53 mW/cm^2, focused to 0.5 cm^2), the λmax red-shifted from 450 nm to 473 nm (FIG. 6B).\nThe formula for fitting the initial kinetics of the photoreaction is as follows:\n[formula] Where: P1=net power of the laser during the trial (mW) E=energy of 450 nm light (J/photon) εs=extinction coefficient of RuBEP (starting material) at 475 nm=1800 M^−1cm^−1 εp=extinction coefficient of Rubpy2(3EP)(H2O)(product) at 475 nm=3800 M^−1cm^−1"}, "[4]": {"assay": "Selective photoactivation of Ru photolinkers (FIG. 25B)", "assay_type": "physicochemical", "description": "FIG. 25, comprising FIG. 25A-25B, depicts exemplary compounds of the invention.\nCompounds [Ru(bpy)2(4-pentynenitrile)2][Cl]2 (Ru420) and [Ru(biq)2(4-pentynenitrile)2][Cl]2 (Ru530) are compounds of the invention which are useful for multiplexing of DNA and morpholino oligonucleotides (FIG. 25A)."}, "[5]": {"test_system": "notail (ntl)", "assay": "ntl knockdown phenotype in microinjected zebrafish embryos", "assay_type": "in vivo", "conditions": "0.25 mM injected at 1-cell stage, 24 hpf", "protocol": "as §1\nFIG. 17 is a series of images depicting zebrafish, including the ntl-MO knockdown phenotype. Zebrafish embryos were injected at the 1-cell stage with 0.25 mM ntl-MO and imaged at 24 hpf. […] Class 2 was identified by U-shaped somites, a shortened posterior axis, with the notochord still present.\nFIG. 19 is a graph depicting Ru-cMO-ntl in vivo data. MO Control:Zebrafish embryos were injected at the 1-cell stage with 0.25 mM ntl-MO and imaged at 24 hpf. Ru-cMO-ntl:Zebrafish embryos were injected at the 1-cell stage with 0.25 mM Ru-cMO-ntl. Half of the embyros were irradiated (450 nm, 14 mW/cm^2, 5 min) at 1 hpf, while the other half were incubated in the dark. Embryos were scored for phenotype at 24 hpf and compared to wildtype.\nZebrafish embryos were obtained. All embryos obtained were TLF×TLF WT. […]"}}}
{"compound": "[Cl-].[Cl-].[Ru+2].c1ccc(-c2ccccn2)nc1.c1ccc(-c2ccccn2)nc1.c1ccncc1.c1ccncc1", "note": "[Ru(bpy)2(pyr)2Cl2]", "values": [{"measurement": "Quantum yield of ligand exchange", "setting": "[1]", "result": 0.4}]}
{"compound": "MO-chd: linear antisense morpholino targeting chordin, ATCCACAGCAGCCCCTCCATCATCC (SEQ ID NO: 4) (all phosphorodiamidate morpholino (PMO))", "values": [{"measurement": "Embryos with normal phenotype", "setting": "[2]; MO-chd control injections, 24 hpf", "result": "~5", "unit": "%"}, {"measurement": "Phenotype of embryos", "setting": "[2]; listed as Bis-azido chd-MO", "result": "chd knockdown phenotype"}, {"measurement": "Phenotype of embryos", "setting": "[2]; listed as chd-MO", "result": "severe to mild"}]}
{"compound": "[Ru(bipyridine)2(3-ethynyl- pyridine)2]^2+ [RuBEP]", "values": [{"measurement": "Time to complete photolysis of bulk solution", "setting": "[3]", "result": 5, "unit": "min"}, {"measurement": "Selective activation", "setting": "[4]", "result": "can be selectively activated"}]}
{"compound": "[Ru(bipyridine)2(4- pentynenitrile)2]^2+ [Ru420]", "values": [{"measurement": "Selective activation", "setting": "[4]", "result": "can be selectively activated"}]}
{"compound": "[Ru(biquinoline)2(4- pentynenitrile)2]^2+ [Ru530]", "values": [{"measurement": "Selective activation", "setting": "[4]", "result": "can be selectively activated"}]}
{"compound": "ntl-MO: linear antisense morpholino targeting notail, AGCTTGAGATAAGTCCGACGATCCT (SEQ ID NO: 7) (all phosphorodiamidate morpholino (PMO))", "values": [{"measurement": "ntl knockdown phenotype", "setting": "[5]", "result": "severe (class 4) to mild (class 2)"}]}
